Assay in all cases: NCI-60 cell line screen, 48 h
Test [1] has as its system ACHN.
The subject of test [2] is CAKI-1.
Test [3] has as its system CCRF-CEM.
In test [4] the test system is HCT-15.
Test [5] deals with IGROV-1.
Test [6] relates to K562.
Test [7] concerns LOX IMVI.
Test [8] has as its system MDA-MB-435.
Test [9] relates to MDA-N.
Test [10] concerns MOLT-4.
For test [11], the system named is NCI-H23.
The subject of test [12] is NCI-H522.
Test [13] concerns NCI/ADR-RES.
Test [14] relates to OVCAR-4.
Test [15] relates to RXF 393.
The subject of test [16] is SK-MEL-28.
Test [17] has as its system SK-MEL-2.
For test [18], the system named is SK-MEL-5.
Test [19] has as its system T47D.
Test [20] relates to U-251.

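Interpolation was linear, between the two tested concentrations surrounding the appropriate level; five concentrations were tested over 48 hours in 96-well plates. At the GI50, growth is halved.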 Activity calls are given as the source filed them. No stated cut-off is given here; in the data, active = GI50 up to about 1.1 µM and inactive = higher.

On to `CCCCCCCCCCCCCCCCCCNC(=O)C(N)Cc1ccc(OCc2ccccc2)cn1` (stereo not given), for which the GI50 was 24.1 µM (inactive) in test [1]; 17.2 µM (inactive) in test [2]; 13.5 µM (inactive) in test [3]; 18.9 µM in [4]; 15.2 µM (inactive) in [5]; 23.1 µM (inactive) in test [6]. Further, the GI50 in [7] is 17.4 µM (inactive); in [8], 17.3 µM (inactive); in [9] it was 26.5 µM (inactive); in test [10] it was 16 µM (inactive); in test [11], 16.8 µM (inactive); in test [12], 18.7 µM (inactive). The GI50 was 20 µM (inactive) in test [13]; 17.2 µM (inactive) in [14]; 20 µM (inactive) in test [15]; 24.1 µM (inactive) in test [16]; 17.1 µM (inactive) in [17]; 18 µM (inactive) in test [18]. In addition, the GI50 in [19] is 20.4 µM (inactive); in test [20], 18.5 µM (inactive).
`Nc1nc(SCCc2ccccc2)c2nc[nH]c2n1`: the GI50 in test [1] was 35.7 µM (inactive); in test [2], 61.9 µM (inactive); in test [3] it was 31.2 µM (inactive); in [4], 37.2 µM; in [5], 51.1 µM (inactive); in [6], 48.1 µM (inactive). Also, the GI50 in test [7] is 41.8 µM (inactive); in [8], 81.7 µM (inactive); in [9], 55.7 µM (inactive); in test [10], 33.6 µM (inactive); in test [11] it was 69.5 µM (inactive); in test [12], 66.2 µM (inactive). For the same molecule, the GI50 in test [13] is 51.2 µM (inactive); in test [14] it was > 100 µM (inactive); in test [15], 60.4 µM (inactive); in [16], 58.9 µM (inactive); in test [17], 30.7 µM (inactive); in test [18], 45.1 µM (inactive). Also, the GI50 in test [19] was 40.9 µM (inactive); in test [20] it was 58.5 µM (inactive).
With `COc1ccc(Cc2c(-c3ccc(C)cc3)n[nH]c(=O)c2C2C(=O)N(c3ccccc3)N=C2c2ccccc2)cc1` (stereo not given), the GI50 in [1] is 30.9 µM (inactive); in test [2] it was 37.1 µM (inactive); in [3], 32.2 µM (inactive); in [4], 42.9 µM; in test [5] it was 32.1 µM (inactive); in test [6] it was 28 µM (inactive). Besides, the GI50 in [7] was 20.6 µM (inactive); in test [8] it was 20.3 µM (inactive); in test [9], 24.4 µM (inactive); in [10], 23.1 µM (inactive); in [11] it was 25.8 µM (inactive); in test [12] it was 44.3 µM (inactive). Besides, the GI50 in test [13] is 25.1 µM (inactive); in test [14], 48.2 µM (inactive); in test [15] it was 26.7 µM (inactive); in [16], 33 µM (inactive); in test [17], 21.9 µM (inactive); in test [18], 20.7 µM (inactive). The GI50 is > 65.6 µM (inactive) in test [19] and 34.8 µM (inactive) in test [20].
Regarding `COC(=O)C1=CC(=O)OC1(OO)c1ccc(Br)cc1` (stereo not given), the GI50 in [1] was > 100 µM (inactive); in test [2], > 100 µM (inactive); in [3], 27 µM (inactive); in [4], 46.5 µM; in test [5], > 100 µM (inactive); in test [6] it was 33.7 µM (inactive). Moreover, the GI50 in test [7] was 48.5 µM (inactive); in [8], > 100 µM (inactive); in [9], > 100 µM (inactive); in test [10], 31.8 µM (inactive); in test [11] it was > 100 µM (inactive); in test [12] it was > 100 µM (inactive). The GI50 in test [13], in [14], in test [15], in [16], in test [17] and in test [18] was > 100 µM (inactive) throughout. For the same molecule, the GI50 in [19] and in test [20] was > 100 µM (inactive) throughout.
Consider `CN[C@@H](Cc1cccc2ccccc12)C(=O)N[C@@H](CC(C)C)B(O)O`, for which the GI50 in test [1] was < 0.01 µM (active); in test [2] it was < 0.01 µM (active); in test [3] it was 0.00516 µM (active); in test [4], less than 0.01 µM; in test [5] it was < 0.01 µM (active); in test [6], < 0.01 µM (active). Moreover, the GI50 in test [7], in [8], in test [9], in [10], in test [11] and in test [12] was < 0.01 µM (active) in each case. Besides, the GI50 in test [13] was < 0.0224 µM (active); in [14] it was < 0.01 µM (active); in [15], < 0.01 µM (active); in test [16], < 0.01 µM (active); in test [17], < 0.01 µM (active); in [18], < 0.01 µM (active). Moreover, the GI50 is < 0.01 µM (active) in test [19] and < 0.0126 µM (active) in [20].
